Consider 24 compounds from ChEMBL document CHEMBL3046115, “Modification and biological evaluation of novel 4-hydroxy-pyrone derivatives as non-peptidic HIV-1 protease inhibitors” (Med Chem Res, 2011).

In one data set the target is Protease (Human immunodeficiency virus 1, UniProt Q9YQ12). The experiment in a line: Inhibition of Human immunodeficiency virus 1 protease using Lys-Ala-Arg-Val-Leu-Phe(NO2)-Glu-Ala-Met as substrate.
For data set [1], the system named is Simian immunodeficiency virus. Description: Antiviral activity against Simian immunodeficiency virus infected CEM174 cells assessed as inhibition of viral-induced syncytium formation after 5 days by microscopic analysis. It counts as functional, organism-based. The conditions noted are these: CEM174, 120 h.
A short description of data set [2]: Cytotoxicity against Homo sapiens (human) CEM174 cells. It counts as cell-based. Conditions: read-out: TC50 (the source's name).
A short description of data set [3]: Therapeutic index, ratio of TC50 for human CEM174 cells to EC50 for SIV infected in human CEM174 cells. It counts as cell-based. Conditions: CEM174 cells (uninfected for TC50, SIV-infected for EC50), read-out: TI.
Data set [4] addresses Protease (Human immunodeficiency virus 1) (UniProt Q9YQ12). Description: Inhibition of Human immunodeficiency virus 1 protease expressed in human 293T cells cotransfected with pGAGPOL and pGAG assessed as Gagp24 protein expression after 48 hr by Western blot analysis. It counts as cell-based.

Usually IC50 stands for the concentration that gives 50% inhibition. A lower IC50 goes with inhibition by little substance. By EC50 is commonly meant the concentration at which the effect is half-maximal.

The source made the active and inactive calls. No cut-off for these calls is given here.

Chain of Protease (Q9YQ12 whole entry): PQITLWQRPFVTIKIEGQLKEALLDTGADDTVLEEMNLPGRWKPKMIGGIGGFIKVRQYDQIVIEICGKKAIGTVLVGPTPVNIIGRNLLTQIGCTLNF
Chain of Protease (Human immunodeficiency virus 1) (Q9YQ12 as listed by the source): as the sequence (Q9YQ12 whole entry) above

Consider `Cc1ccc(C(C)C)c(SC2=C(O)CC(CCc3ccccc3)(C(C)C)OC2=O)c1` (centres undefined), for which inhibition at Protease was half-maximal at 1.1 nM (IC50). For the same compound, the EC50 in data set [1] came out at 15000 nM.

On Protease, `O=C(O)CCCCC1(CCc2ccccc2)CC(O)=C(SCCc2ccccc2)C(=O)O1` (centres undefined) displayed an IC50 of 5 nM. This counts as single-digit nanomolar.

`CC(C)(C)NC(=O)[C@@H]1CN(Cc2cccnc2)CCN1C[C@@H](O)C[C@@H](Cc1ccccc1)C(=O)N[C@H]1c2ccccc2C[C@H]1O`: the CC50 in data set [2] is greater than 100000 nM. Further, the EC50 in data set [1] was less than 100 nM. The selectivity ratio in data set [3] is greater than 1000.

Consider `Cc1ccc(C)c(SC2=C(O)CC(COc3cccc4ccccc34)(c3ccccc3)OC2=O)c1` (racemic), for which the IC50 against Protease came out at 126 nM. In other words, the sub-micromolar range.

With `CCOc1ccc(OCC)c(SC2=C(O)CC(COc3cccc4ccccc34)(c3ccccc3)OC2=O)c1` (racemic), the concentration for half-maximal inhibition (IC50) at Protease was found to be 3.5 nM. In addition, the inhibition result in data set [4] is “Active”.

Take `O=C1OC(COc2cccc3ccccc23)(c2ccccc2)CC(O)=C1SCc1ccccc1` (racemic): the IC50 on Protease amounted to 128 nM.

Consider `O=C1OC(COc2ccc3ccccc3c2)(c2ccccc2)CC(O)=C1Sc1ccccc1` (racemic), for which it took 126 nM to reach half-maximal inhibition on Protease (IC50).

`Cc1ccccc1SC1=C(O)CC(COc2ccc3ccccc3c2)(c2ccccc2)OC1=O` (racemic) gave an IC50 against Protease of 61 nM.

`CCc1ccccc1SC1=C(O)CC(COc2ccc3ccccc3c2)(c2ccccc2)OC1=O` (racemic) registered an IC50 at Protease of 22 nM.

`O=C1OC(COc2ccc3ccccc3c2)(c2ccccc2)CC(O)=C1Sc1ccccc1Cl` (racemic) had an IC50 against Protease of 89 nM.

In the case of `Cc1ccc(C)c(SC2=C(O)CC(COc3ccc4ccccc4c3)(c3ccccc3)OC2=O)c1` (racemic), at Protease, the IC50 worked out at 65 nM.

At Protease, `CCOc1ccc(OCC)c(SC2=C(O)CC(COc3ccc4ccccc4c3)(c3ccccc3)OC2=O)c1` (racemic) had an IC50 of 9.2 nM. Also, the inhibition result in data set [4] was “Active”.

Consider `O=C1OC(COc2ccc3ccccc3c2)(c2ccccc2)CC(O)=C1SCc1ccccc1` (racemic), for which half-maximal inhibition against Protease (IC50) was put at 73 nM.

`O=C1OC(CSc2ccccc2)(c2ccccc2)CC(O)=C1Sc1ccccc1` (racemic): at Protease, the IC50 came out at 258 nM. This IC50 is about […]-fold higher than that of the compound before.

For `Cc1ccccc1SC1=C(O)CC(CSc2ccccc2)(c2ccccc2)OC1=O` (racemic), at Protease, the IC50 stood at 240 nM.

For the compound `CCc1ccccc1SC1=C(O)CC(CSc2ccccc2)(c2ccccc2)OC1=O` (racemic), the IC50 on Protease turned out to be 238 nM. This IC50 and that of the compound before are within 1.5-fold of each other.

Regarding `O=C1OC(CSc2ccccc2)(c2ccccc2)CC(O)=C1Sc1ccccc1Cl` (racemic), the IC50 on Protease was 70 nM. Against the preceding compound, the IC50 is about 3.4-fold lower.

Compound `Cc1ccc(C)c(SC2=C(O)CC(CSc3ccccc3)(c3ccccc3)OC2=O)c1` (racemic) gave an IC50 against Protease of 196 nM.

As to `CCOc1ccc(OCC)c(SC2=C(O)CC(CSc3ccccc3)(c3ccccc3)OC2=O)c1` (racemic), the midpoint of inhibition on Protease, the IC50, lay at 24 nM.

Turning to `O=C1OC(CSc2ccccc2)(c2ccccc2)CC(O)=C1SCc1ccccc1` (racemic), the IC50 against Protease is 32 nM.

`O=C1OC(COc2cccc3ccccc23)(c2ccccc2)CC(O)=C1Sc1ccccc1` (racemic) showed an IC50 against Protease of 159 nM.

For the compound `Cc1ccccc1SC1=C(O)CC(COc2cccc3ccccc23)(c2ccccc2)OC1=O` (racemic), the midpoint of inhibition at Protease, the IC50, lay at 64 nM.

Take `CCc1ccccc1SC1=C(O)CC(COc2cccc3ccccc23)(c2ccccc2)OC1=O` (racemic): inhibition against Protease was half-maximal at 100 nM (IC50).

On to `O=C1OC(COc2cccc3ccccc23)(c2ccccc2)CC(O)=C1Sc1ccccc1Cl` (racemic), for which, on Protease, half-maximal inhibition (IC50) was put at 59 nM.
